The experiment addresses T1, human estrogen receptor α (ERα) (Homo sapiens, UniProt P03372).
T1 sequence (P03372 302-552 limits assumed): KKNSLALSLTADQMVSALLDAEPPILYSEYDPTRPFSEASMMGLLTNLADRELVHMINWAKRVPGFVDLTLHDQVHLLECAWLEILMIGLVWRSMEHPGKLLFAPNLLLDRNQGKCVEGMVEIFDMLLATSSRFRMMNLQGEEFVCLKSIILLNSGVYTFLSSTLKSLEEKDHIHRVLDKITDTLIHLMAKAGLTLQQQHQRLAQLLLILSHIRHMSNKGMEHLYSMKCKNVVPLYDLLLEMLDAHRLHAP
The class given is binding.

Each structure is given as a SMILES string.

We go through one compound from publication PMC10938262 (Science translational medicine, 2023).

Take `C[C@]12CC[C@@H]3c4ccc(O)cc4CC[C@H]3[C@@H]1C[C@@H](F)[C@@H]2O` [FES, 16α-fluoroestradiol]: the inhibition constant Ki (as a rule, the dissociation constant of the complex between target and ligand, obtained from inhibition or displacement) turned out to be 0.3 ± 0.1 nM.
